From ChEMBL document CHEMBL2176888, “Structure-activity relationships in human Toll-like receptor 8-active 2,3-diamino-furo[2,3-c]pyridines” (J Med Chem, 2012)
Active and inactive are the calls of the source. No cut-off for these calls is given here.

Key:
Assay type in all cases: functional, cell-based
[1] = target: Toll-like receptor 5 (Homo sapiens) (UniProt O60602); test: Agonist activity at human TLR5 expressed in HEK293 cells assessed as induction of NF-kappaB activity by measuring extracellular secreted alkaline phosphatase up to 250 uM by HEK-blue reporter gene assay
[2] = target: T1, Toll-like receptor 8 (Homo sapiens) (UniProt Q9NR97); test: Agonist activity at human TLR8 expressed in HEK293 cells assessed as induction of NF-kappaB activity by measuring extracellular secreted alkaline phosphatase up to 250 uM by HEK-blue reporter gene assay
T1 sequence (whole entry): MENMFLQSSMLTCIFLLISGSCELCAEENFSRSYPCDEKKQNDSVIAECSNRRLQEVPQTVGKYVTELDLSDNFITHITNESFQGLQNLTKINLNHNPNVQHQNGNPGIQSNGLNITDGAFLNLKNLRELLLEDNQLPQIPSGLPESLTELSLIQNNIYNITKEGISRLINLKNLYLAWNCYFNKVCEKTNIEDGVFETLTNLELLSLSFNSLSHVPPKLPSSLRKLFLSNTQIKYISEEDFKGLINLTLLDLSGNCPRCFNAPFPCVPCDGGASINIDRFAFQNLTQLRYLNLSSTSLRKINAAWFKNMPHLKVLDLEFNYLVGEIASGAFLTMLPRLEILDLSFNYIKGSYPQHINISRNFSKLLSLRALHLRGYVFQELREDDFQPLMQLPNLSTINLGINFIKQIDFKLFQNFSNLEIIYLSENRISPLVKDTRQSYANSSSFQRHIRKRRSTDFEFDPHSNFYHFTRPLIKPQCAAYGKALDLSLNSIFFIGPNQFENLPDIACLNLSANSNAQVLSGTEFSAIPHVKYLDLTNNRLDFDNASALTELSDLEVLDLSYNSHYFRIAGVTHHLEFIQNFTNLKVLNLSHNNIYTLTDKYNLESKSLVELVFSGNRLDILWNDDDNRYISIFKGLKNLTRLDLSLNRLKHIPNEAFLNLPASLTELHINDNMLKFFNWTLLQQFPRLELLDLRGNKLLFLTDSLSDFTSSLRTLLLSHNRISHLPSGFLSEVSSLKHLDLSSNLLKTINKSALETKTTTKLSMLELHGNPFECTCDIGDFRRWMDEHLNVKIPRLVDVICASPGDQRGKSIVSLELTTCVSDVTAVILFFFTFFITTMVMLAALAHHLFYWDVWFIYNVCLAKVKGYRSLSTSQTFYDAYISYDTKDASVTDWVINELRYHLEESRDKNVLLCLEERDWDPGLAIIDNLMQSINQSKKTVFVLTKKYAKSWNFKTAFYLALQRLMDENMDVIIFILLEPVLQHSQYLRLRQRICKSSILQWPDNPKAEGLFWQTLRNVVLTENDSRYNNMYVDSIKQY

[3] = target: Toll-like receptor 4 (Homo sapiens) (UniProt O00206); test: Agonist activity at human TLR4 expressed in HEK293 cells assessed as induction of NF-kappaB activity by measuring extracellular secreted alkaline phosphatase up to 250 uM by HEK-blue reporter gene assay
[4] = target: T2, Toll-like receptor 9 (Homo sapiens) (UniProt Q9NR96); test: Agonist activity at human TLR9 expressed in HEK293 cells assessed as induction of NF-kappaB activity by measuring extracellular secreted alkaline phosphatase up to 250 uM by HEK-blue reporter gene assay
T2 sequence (whole entry): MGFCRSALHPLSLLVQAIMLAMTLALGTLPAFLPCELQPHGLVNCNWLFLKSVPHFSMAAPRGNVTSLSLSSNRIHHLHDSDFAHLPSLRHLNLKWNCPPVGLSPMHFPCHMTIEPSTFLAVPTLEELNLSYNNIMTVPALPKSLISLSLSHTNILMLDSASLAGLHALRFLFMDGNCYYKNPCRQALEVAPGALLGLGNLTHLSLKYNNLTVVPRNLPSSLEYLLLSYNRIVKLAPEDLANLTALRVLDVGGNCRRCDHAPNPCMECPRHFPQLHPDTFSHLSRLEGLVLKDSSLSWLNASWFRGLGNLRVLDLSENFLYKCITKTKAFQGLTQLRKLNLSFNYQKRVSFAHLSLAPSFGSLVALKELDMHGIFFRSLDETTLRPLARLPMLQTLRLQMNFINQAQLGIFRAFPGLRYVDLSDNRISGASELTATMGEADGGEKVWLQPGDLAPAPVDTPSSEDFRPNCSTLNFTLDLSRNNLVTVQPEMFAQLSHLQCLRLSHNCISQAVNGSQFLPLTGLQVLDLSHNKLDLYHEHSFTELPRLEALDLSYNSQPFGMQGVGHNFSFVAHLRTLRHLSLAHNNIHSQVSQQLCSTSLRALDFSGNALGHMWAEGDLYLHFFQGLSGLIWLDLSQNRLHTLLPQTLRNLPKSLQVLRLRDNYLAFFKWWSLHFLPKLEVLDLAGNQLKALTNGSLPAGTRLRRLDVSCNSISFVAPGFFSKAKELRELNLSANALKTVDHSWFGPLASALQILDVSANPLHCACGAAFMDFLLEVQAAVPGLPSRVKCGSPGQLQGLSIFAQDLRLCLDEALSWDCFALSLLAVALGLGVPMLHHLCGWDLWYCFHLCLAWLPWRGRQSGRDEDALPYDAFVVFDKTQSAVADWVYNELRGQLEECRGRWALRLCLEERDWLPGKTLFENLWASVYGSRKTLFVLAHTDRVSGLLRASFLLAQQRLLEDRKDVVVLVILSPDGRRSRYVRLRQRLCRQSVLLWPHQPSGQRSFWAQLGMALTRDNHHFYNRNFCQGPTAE

[5] = target: T3, Toll-like receptor 7 (Homo sapiens) (UniProt Q9NYK1); test: Agonist activity at human TLR7 expressed in HEK293 cells assessed as induction of NF-kappaB activity by measuring extracellular secreted alkaline phosphatase up to 250 uM by HEK-blue reporter gene assay
T3 sequence (whole entry): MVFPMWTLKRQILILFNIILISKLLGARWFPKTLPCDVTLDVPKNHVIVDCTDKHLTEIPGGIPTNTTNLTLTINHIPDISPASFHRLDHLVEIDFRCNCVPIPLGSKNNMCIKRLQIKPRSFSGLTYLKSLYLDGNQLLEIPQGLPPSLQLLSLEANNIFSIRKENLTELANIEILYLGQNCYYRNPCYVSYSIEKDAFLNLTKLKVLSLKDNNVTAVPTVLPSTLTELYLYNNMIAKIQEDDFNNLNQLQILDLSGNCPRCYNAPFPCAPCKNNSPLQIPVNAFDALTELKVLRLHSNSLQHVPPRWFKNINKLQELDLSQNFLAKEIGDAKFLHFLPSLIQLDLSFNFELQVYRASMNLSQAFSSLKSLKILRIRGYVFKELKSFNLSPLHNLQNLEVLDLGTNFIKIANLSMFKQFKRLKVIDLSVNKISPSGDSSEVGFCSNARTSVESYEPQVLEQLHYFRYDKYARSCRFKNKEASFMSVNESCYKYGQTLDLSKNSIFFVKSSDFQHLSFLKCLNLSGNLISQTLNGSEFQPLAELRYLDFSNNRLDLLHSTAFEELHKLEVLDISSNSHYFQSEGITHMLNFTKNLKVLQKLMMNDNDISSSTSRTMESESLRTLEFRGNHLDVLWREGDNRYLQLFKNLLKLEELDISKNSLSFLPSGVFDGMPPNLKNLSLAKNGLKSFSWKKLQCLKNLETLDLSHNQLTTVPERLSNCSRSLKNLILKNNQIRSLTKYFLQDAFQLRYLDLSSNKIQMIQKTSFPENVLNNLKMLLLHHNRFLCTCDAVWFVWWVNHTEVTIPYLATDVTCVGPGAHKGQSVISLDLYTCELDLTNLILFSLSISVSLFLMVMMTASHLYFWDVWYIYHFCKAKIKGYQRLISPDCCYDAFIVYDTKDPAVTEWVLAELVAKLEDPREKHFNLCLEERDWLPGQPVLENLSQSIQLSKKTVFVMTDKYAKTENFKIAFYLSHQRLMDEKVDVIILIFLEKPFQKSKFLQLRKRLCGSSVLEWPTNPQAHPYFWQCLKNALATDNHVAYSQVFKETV

[6] = target: Toll-like receptor 3 (Homo sapiens) (UniProt O15455); test: Agonist activity at human TLR3 expressed in HEK293 cells assessed as induction of NF-kappaB activity by measuring extracellular secreted alkaline phosphatase up to 250 uM by HEK-blue reporter gene assay
Toll-like receptor 8 = target: T4, Toll-like receptor 8 (Homo sapiens, UniProt Q9NR97); test: Agonist activity at human TLR8 expressed in HEK293 cells assessed as induction of NF-kappaB activity by measuring extracellular secreted alkaline phosphatase by HEK-blue reporter gene assay
T4 sequence (Q9NR97 whole entry): T1 sequence (whole entry)

Sequence of Toll-like receptor 5 (Homo sapiens) (O60602 whole entry): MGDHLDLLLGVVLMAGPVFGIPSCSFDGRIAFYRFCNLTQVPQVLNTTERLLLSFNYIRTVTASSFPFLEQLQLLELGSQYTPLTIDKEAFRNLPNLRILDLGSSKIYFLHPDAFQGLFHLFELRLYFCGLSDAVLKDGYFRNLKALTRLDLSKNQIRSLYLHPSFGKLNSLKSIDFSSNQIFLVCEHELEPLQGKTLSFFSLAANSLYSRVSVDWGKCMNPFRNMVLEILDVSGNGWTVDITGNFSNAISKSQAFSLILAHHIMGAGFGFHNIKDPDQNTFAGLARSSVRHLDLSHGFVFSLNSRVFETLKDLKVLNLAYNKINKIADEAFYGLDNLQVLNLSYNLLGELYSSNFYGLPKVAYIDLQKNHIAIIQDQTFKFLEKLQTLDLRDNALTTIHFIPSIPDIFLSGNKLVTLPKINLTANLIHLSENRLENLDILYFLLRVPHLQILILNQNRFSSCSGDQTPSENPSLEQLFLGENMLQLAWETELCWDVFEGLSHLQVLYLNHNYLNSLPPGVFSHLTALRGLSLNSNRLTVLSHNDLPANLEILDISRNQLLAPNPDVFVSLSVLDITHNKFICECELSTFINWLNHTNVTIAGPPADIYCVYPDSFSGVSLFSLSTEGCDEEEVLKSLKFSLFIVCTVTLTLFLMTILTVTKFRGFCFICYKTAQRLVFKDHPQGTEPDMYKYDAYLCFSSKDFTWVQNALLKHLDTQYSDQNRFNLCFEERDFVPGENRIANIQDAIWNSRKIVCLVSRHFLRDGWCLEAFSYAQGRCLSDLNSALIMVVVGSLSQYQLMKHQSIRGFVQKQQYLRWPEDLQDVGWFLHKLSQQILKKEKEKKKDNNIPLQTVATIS
Sequence of Toll-like receptor 4 (Homo sapiens) (O00206 whole entry): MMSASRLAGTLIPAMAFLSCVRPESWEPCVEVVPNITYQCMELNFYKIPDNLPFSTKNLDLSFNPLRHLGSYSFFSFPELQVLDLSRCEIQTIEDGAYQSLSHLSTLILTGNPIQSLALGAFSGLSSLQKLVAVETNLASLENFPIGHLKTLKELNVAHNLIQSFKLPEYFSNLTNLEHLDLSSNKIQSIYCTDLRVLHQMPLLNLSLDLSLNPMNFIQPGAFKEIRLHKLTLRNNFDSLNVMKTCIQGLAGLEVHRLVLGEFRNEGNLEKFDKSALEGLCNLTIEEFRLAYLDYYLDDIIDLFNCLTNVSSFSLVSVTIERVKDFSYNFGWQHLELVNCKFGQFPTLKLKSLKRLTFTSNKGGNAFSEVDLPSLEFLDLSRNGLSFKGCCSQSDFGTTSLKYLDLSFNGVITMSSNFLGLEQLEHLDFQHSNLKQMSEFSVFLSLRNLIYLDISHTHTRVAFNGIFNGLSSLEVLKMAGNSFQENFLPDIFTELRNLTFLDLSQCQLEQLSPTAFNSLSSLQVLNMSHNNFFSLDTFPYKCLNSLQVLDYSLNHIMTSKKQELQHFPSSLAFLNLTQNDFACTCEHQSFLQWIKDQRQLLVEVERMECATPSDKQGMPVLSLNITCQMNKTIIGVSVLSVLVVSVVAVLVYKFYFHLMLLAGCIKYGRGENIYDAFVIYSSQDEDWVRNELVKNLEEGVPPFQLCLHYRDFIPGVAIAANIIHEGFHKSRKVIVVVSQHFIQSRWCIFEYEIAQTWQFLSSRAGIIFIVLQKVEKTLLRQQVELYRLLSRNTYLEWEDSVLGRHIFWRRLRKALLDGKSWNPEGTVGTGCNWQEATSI
Sequence of Toll-like receptor 3 (Homo sapiens) (O15455 whole entry): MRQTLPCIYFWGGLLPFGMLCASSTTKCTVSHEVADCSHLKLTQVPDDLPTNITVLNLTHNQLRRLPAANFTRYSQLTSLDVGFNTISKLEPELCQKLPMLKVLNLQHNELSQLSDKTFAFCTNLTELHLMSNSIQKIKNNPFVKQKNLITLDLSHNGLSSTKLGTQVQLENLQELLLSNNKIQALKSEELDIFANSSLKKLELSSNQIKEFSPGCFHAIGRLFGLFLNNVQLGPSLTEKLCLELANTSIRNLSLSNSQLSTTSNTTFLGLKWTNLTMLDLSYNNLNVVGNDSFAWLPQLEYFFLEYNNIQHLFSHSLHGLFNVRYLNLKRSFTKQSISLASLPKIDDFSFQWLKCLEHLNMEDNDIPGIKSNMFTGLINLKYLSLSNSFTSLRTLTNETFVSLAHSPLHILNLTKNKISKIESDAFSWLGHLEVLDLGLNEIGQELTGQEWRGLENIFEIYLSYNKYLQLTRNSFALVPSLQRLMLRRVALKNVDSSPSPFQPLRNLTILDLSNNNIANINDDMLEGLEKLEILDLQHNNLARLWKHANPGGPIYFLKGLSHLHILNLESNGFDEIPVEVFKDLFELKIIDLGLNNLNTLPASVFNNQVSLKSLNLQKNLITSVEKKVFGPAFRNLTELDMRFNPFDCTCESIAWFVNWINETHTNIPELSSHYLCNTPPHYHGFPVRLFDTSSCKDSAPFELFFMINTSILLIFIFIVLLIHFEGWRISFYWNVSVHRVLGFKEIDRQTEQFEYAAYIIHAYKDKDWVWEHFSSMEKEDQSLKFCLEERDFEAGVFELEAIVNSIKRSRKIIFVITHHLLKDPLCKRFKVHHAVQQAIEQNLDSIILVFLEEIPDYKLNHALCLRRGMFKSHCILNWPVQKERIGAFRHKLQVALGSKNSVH

CC(C)(C)Nc1c(-c2ccncc2)nc2cnccn12
Activity [1]: inactive
Activity [2]: inactive
Activity [3]: inactive
Activity [4]: inactive
Activity [5]: inactive
Activity [6]: inactive

CCOP(=O)(CNc1oc2c(C)ncc(CO)c2c1Nc1ccccn1)OCC
EC50 (Toll-like receptor 8; hek293): Not Active

c1ccn2c(NC3CCCCC3)c(-c3ccncc3)nc2c1
Activity [1]: inactive
Activity [2]: inactive
Activity [3]: inactive
Activity [4]: inactive
Activity [5]: inactive
Activity [6]: inactive

Cc1cccc(Cl)c1Nc1oc2c(C)ncc(CO)c2c1Nc1ccccn1
EC50 (Toll-like receptor 8; hek293): Not Active

Oc1ccccc1-c1nc2ccccn2c1NC1CCCCC1
Activity [1]: inactive
Activity [2]: inactive
Activity [3]: inactive
Activity [4]: inactive
Activity [5]: inactive
Activity [6]: inactive

Cc1ncc(CO)c(-c2nc3ccccn3c2NC2CCCCC2)c1OCc1ccccc1
EC50 (Toll-like receptor 8; hek293): Not Active

Cc1ncc(CO)c2c(Nc3ccccn3)c(N[C@@H](C)c3ccccc3)oc12
EC50 (Toll-like receptor 8; read-out: EC50): 4.27 µM

Cc1ncc(CO)c2c(Nc3ccccn3)c(NC3CCCCC3)oc12
EC50 (Toll-like receptor 8; read-out: EC50): 6.93 µM

Cc1ncc(CO)c2c(Nc3ccccn3)c(NCCN3CCOCC3)oc12
EC50 (Toll-like receptor 8; hek293): Not Active

Nc1nccn2c(NC3CCCCC3)c(-c3ccccc3)nc12
Activity [1]: inactive
Activity [2]: inactive
Activity [3]: inactive
Activity [4]: inactive
Activity [5]: inactive
Activity [6]: inactive

CC(C)(C)Nc1c(-c2ccccc2)nc2cnccn12
Activity [1]: inactive
Activity [2]: inactive
Activity [3]: inactive
Activity [4]: inactive
Activity [5]: inactive
Activity [6]: inactive

Cc1ncc(CO)c2c(Nc3ccccn3)c(NCCC(=O)OC(C)(C)C)oc12
EC50 (Toll-like receptor 8; read-out: EC50): 7.64 µM

Cc1ncc(CO)c2c(Nc3cnccn3)c(NC(C)(C)C)oc12
EC50 (Toll-like receptor 8; hek293): Not Active

c1ccc(CNc2c(-c3ccncc3)nc3cnccn23)cc1
Activity [1]: inactive
Activity [2]: inactive
Activity [3]: inactive
Activity [4]: inactive
Activity [5]: inactive
Activity [6]: inactive

Cc1ncc(CO)c2c(Nc3ccccn3)c(NCCCCCCNc3oc4c(C)ncc(CO)c4c3Nc3ccccn3)oc12
EC50 (Toll-like receptor 8; read-out: EC50): 3.37 µM

Oc1ccccc1-c1nc2cnccn2c1NC1CCCCC1
Activity [1]: inactive
Activity [2]: inactive
Activity [3]: inactive
Activity [4]: inactive
Activity [5]: inactive
Activity [6]: inactive

CCCCc1nc2c(N)nccn2c1NCc1ccccc1
Activity [1]: inactive
Activity [2]: inactive
Activity [3]: inactive
Activity [4]: inactive
Activity [5]: inactive
Activity [6]: inactive

c1ccc(CNc2c(-c3ccncc3)nc3ccccn23)cc1
Activity [1]: inactive
Activity [2]: inactive
Activity [3]: inactive
Activity [4]: inactive
Activity [5]: inactive
Activity [6]: inactive

Cc1ncc(CO)c2c(Nc3cnccn3)c(NC3CCCCC3)oc12
EC50 (Toll-like receptor 8; read-out: EC50): 10.6 µM

CCOC(=O)CNc1oc2c(C)ncc(CO)c2c1Nc1ccccn1
EC50 (Toll-like receptor 8; hek293): Not Active

CCCC(C)Nc1oc2c(C)ncc(CO)c2c1Nc1ccccn1 (stereo unspecified)
EC50 (Toll-like receptor 8; read-out: EC50): 9.01 µM

CCCCCNc1oc2c(C)ncc(CO)c2c1Nc1cccc(F)c1
EC50 (Toll-like receptor 8; read-out: EC50): 0.37 µM

CCCCCNc1oc2c(C)ncc(CO)c2c1Nc1ccccc1
EC50 (Toll-like receptor 8; read-out: EC50): 2.25 µM

Cc1ncc(CO)c2c(Nc3cnccn3)c(NCc3ccccc3)oc12
EC50 (Toll-like receptor 8; read-out: EC50): 9.79 µM

Cc1ncc(CO)c2c(Nc3ccccn3)c(NC(C)(C)CC(C)(C)C)oc12
EC50 (Toll-like receptor 8; hek293): Not Active

Cc1ncc(CO)c2c(Nc3ccccn3)c(NC(C)C)oc12
EC50 (Toll-like receptor 8; hek293): Not Active

CCCCCNc1oc2c(C)ncc(CO)c2c1Nc1cccc([N+](=O)[O-])c1
EC50 (Toll-like receptor 8; read-out: EC50): 0.85 µM

COc1ccc(Nc2oc3c(C)ncc(CO)c3c2Nc2ccccn2)cc1
EC50 (Toll-like receptor 8; hek293): Not Active

Cc1ncc(CO)c2c(Nc3ccccc3)c(NCc3ccccc3)oc12
EC50 (Toll-like receptor 8; read-out: EC50): 1.68 µM

Cc1ncc(CO)c2c(Nc3ccccn3)c(NC(C)(C)C)oc12
EC50 (Toll-like receptor 8; hek293): Not Active

Cc1ncc(CO)c2c(Nc3ccccn3)c(N)oc12
EC50 (Toll-like receptor 8; hek293): Not Active
